In US20250387422A1, “FORMULATION OF AN AMPHOTERICIN B HYBRID AMIDE DERIVATIVE IN DSGPEG2K MICELLES” (The Board of Trustees of the University of Illinois, priority 2022, published 2025):
“Also recorded” adds a separate entry of the source.

What was measured:
Assay type in all cases: physicochemical
[1] = Solubility of AM-2-19-FB in D5W/DSG-PEG2000; settings: aqueous with cosolvent or surfactant or cyclodextrin
[2] = Solution stability of AM-2-19 in IV-compatible solvents (FIG. 1); settings: IV-compatible solvents such as 5% dextrose in water (D5W)
[3] = In vitro plasma compatibility of AM-2-19 in human plasma
Description: The in vitro plasma compatibility of AM-2-19 in human plasma is represented below: […]

[4] = ratio 1:0.1, final concentration AM-2-19 0.09 mg/mL
[5] = ratio 1:0.1, final concentration AM-2-19 0.18 mg/mL
[6] = ratio 1:0.1, final concentration AM-2-19 0.45 mg/mL
[7] = ratio 1:1, final concentration AM-2-19 0.50 mg/mL
[8] = ratio 1:1, final concentration AM-2-19 1.00 mg/mL
[9] = ratio 1:1, final concentration AM-2-19 2.50 mg/mL

solubility ([1]; in D5W/DSG-PEG2000 (1:3 molar ratio) without the acetate buffer): ~100 µg/mL | solubility ([1]; in D5W/DSG-PEG2000 with acetate buffer): > 8000 µg/mL | Compatibility [3, 4]: compatible | Precipitate/Pellet or Coagulation Observed [3, 4]: None | Compatibility [3, 5]: compatible | Precipitate/Pellet or Coagulation Observed [3, 5]: None | Compatibility [3, 6]: Not compatible | Precipitate/Pellet or Coagulation Observed [3, 6]: Pellet (Very Light) | Compatibility [3, 7]: Not compatible | Precipitate/Pellet or Coagulation Observed [3, 7]: Pellet (Light) | Compatibility [3, 8]: Not compatible | Precipitate/Pellet or Coagulation Observed [3, 8]: Pellet (Moderate) | Compatibility [3, 9]: Not compatible | Precipitate/Pellet or Coagulation Observed [3, 9]: Pellet (Severe)
Compound: CC1OC(OC2/C=C/C=C/C=C/C=C/C=C/C=C/C=C/[C@H](C)[C@@H](O)[C@@H](C)[C@H](C)OC(=O)C[C@H](O)C[C@H](O)CC[C@@H](O)[C@H](O)C[C@H](O)C[C@]3(O)C[C@H](O)[C@@H](C(=O)NC(CO)CO)C(C2)O3)C(O)C(N)C1O (stereo partly drawn) [AM-2-19]
solution stability [2]: unstable even over the course of hours; also recorded: lacks solution stability
